As a reminder, the Kd is a measure of binding affinity in units of concentration.

One test addresses WDR5 (Homo sapiens (Human), UniProt P61964). Briefly: Surface Plasmon Resonance (SPR) assay, KD and residence time. It counts as binding. As to conditions: surface plasmon resonance (SPR) assay; read-out: WDR5 binding affinity (KD). In general terms: Surface plasmon resonance follows binding to a sensor surface in real time, without labels.
With `CC1CN(c2cc(F)c(-c3cnc(N4CCOCC4)nc3)cc2NC(=O)c2nn(C)c3ccccc23)CCN1C` (stereo in doubt) [Example 116, N-[4-fluoro-5-(2-morpholin-4-ylpyrimidin-5-yl)-2-[(3R)-3,4-dimethylpiperazin-1-yl]phenyl]-1-methylindazole-3-carboxamide], the equilibrium dissociation constant (Kd) amounted to 76.8 nM. Regarding `C[C@@H]1CN(c2cc(F)c(-c3cnc(N4CCOCC4)nc3)cc2NC(=O)c2c(O)cnc3ccccc23)C[C@H](C)N1C` [Example 282, N-[4-fluoro-5-(2-morpholin-4-ylpyrimidin-5-yl)-2-[(3R,5S)-3,4,5-trimethylpiperazin-1-yl]phenyl]-3-hydroxyquinoline-4-carboxamide], the Kd worked out at 1.98 nM. On to `C[C@@H]1CN(c2cc(F)c(-c3cnc(N4CCCC4)nc3)cc2NC(=O)c2cn(C)c(=O)cc2C(F)(F)F)C[C@H](C)N1C` [Example 210, N-[4-fluoro-5-(2-pyrrolidin-1-ylpyrimidin-5-yl)-2-[(3R,5S)-3,4,5-trimethylpiperazin-1-yl]phenyl]-1-methyl-6-oxo-4-(trifluoromethyl)pyridine-3-carboxamide], for which the Kd turned out to be 3.86 nM. Same read-out and setting: the result for `C[C@@H]1CN(c2cc(F)c(C3=CCN(c4ncc(CO)cn4)CC3)cc2NC(=O)c2c[nH]c(=O)cc2C(F)(F)F)C[C@H](C)N1C` [Example 394, N-[4-fluoro-5-[1-[5-(hydroxymethyl)pyrimidin-2-yl]-3,6-dihydro-2H-pyridin-4-yl]-2-[(3R,5S)-3,4,5-trimethylpiperazin-1-yl]phenyl]-6-oxo-4-(trifluoromethyl)-1H-pyridine-3-carboxamide] reads 0.775 nM. Turning to `C[C@@H]1CN(c2cc(F)c(-c3cnc(N(C)C)nc3)cc2NC(=O)c2ccc(F)cc2C(F)(F)F)C[C@H](C)N1C` [Example 380, N-[5-[2-(dimethylamino)pyrimidin-5-yl]-4-fluoro-2-[(3R,5S)-3,4,5-trimethylpiperazin-1-yl]phenyl]-4-fluoro-2-(trifluoromethyl)benzamide], the Kd stood at 1.7 nM. Still for that read-out and setting: as for `C[C@@H]1CN(c2cc(F)c(C3CN=C(N4CCOCC4)NC3)cc2NC(=O)c2c[nH]c(=O)cc2C(F)(F)F)C[C@H](C)N1C` (stereo partly drawn) [Example 339, N-[4-fluoro-5-(2-morpholin-4-yl-1,4,5,6-tetrahydropyrimidin-5-yl)-2-[(3R,5S)-3,4,5-trimethylpiperazin-1-yl]phenyl]-6-oxo-4-(trifluoromethyl)-1H-pyridine-3-carboxamide], the figure is 275 nM; as for `CC1CN(c2cc(F)c(-c3ccc(N4CCOCC4)nc3)cc2NC(=O)c2c[nH]c(=O)cc2C(F)F)CCN1C` (stereo in doubt) [Example 331, 4-(difluoromethyl)-N-[4-fluoro-5-(6-morpholin-4-ylpyridin-3-yl)-2-[(3R)-3,4-dimethylpiperazin-1-yl]phenyl]-6-oxo-1H-pyridine-3-carboxamide], 2.01 nM; as for `C[C@@H]1CN(c2ncc(-c3cc(NC(=O)c4c[nH]c(=O)cc4C(F)F)c(N4C[C@@H](C)N(C)[C@@H](C)C4)cc3F)cn2)CCO1` [Example 386, 4-(difluoromethyl)-N-[4-fluoro-5-[2-[(2R)-2-methylmorpholin-4-yl]pyrimidin-5-yl]-2-[(3R,5S)-3,4,5-trimethylpiperazin-1-yl]phenyl]-6-oxo-1H-pyridine-3-carboxamide], 1.49 nM.

As for `C[C@@H]1CN(c2cc(F)c(-c3cnc(N4CCOCC4)nc3)cc2NC(=O)c2cc(F)cc(F)c2)C[C@H](C)N1C` [Example 160, 3,5-difluoro-N-[4-fluoro-5-(2-morpholin-4-ylpyrimidin-5-yl)-2-[(3R,5S)-3,4,5-trimethylpiperazin-1-yl]phenyl]benzamide], the Kd came to 26.8 nM.

Regarding `COc1cccc(C(=O)Nc2cc(-c3cnc(N4CCOCC4)nc3)c(F)cc2N2C[C@@H](C)N(C)[C@@H](C)C2)c1` [Example 89, N-[4-fluoro-5-(2-morpholin-4-ylpyrimidin-5-yl)-2-[(3R,5S)-3,4,5-trimethylpiperazin-1-yl]phenyl]-3-methoxybenzamide], the Kd came to 33.8 nM. As for `C[C@@H]1CN(c2cc(F)c(-c3ccccc3)cc2NC(=O)c2c[nH]c(=O)cc2C(F)(F)F)C[C@H](C)N1C` [Example 146, N-[4-fluoro-5-phenyl-2-[(3R,5S)-3,4,5-trimethylpiperazin-1-yl]phenyl]-6-oxo-4-(trifluoromethyl)-1H-pyridine-3-carboxamide], the equilibrium dissociation constant (Kd) was 6.02 nM. On the same count and under the same terms, as for `C[C@@H]1CN(c2cc(F)c(-c3ccc(N4CCCC4)nc3)cc2NC(=O)c2c[nH]c(=O)cc2C(F)(F)F)C[C@H](C)N1C` [Example 261, N-[4-fluoro-5-(6-pyrrolidin-1-ylpyridin-3-yl)-2-[(3R,5S)-3,4,5-trimethylpiperazin-1-yl]phenyl]-6-oxo-4-(trifluoromethyl)-1H-pyridine-3-carboxamide], the figure is 1.64 nM; as for `C[C@@H]1CN(c2cc(F)c(C3=CCN(CCC(F)(F)F)CC3)cc2NC(=O)c2c[nH]c(=O)cc2C(F)(F)F)C[C@H](C)N1C` [Example 152, N-[4-fluoro-2-[(3R,5S)-3,4,5-trimethylpiperazin-1-yl]-5-[1-(3,3,3-trifluoropropyl)-3,6-dihydro-2H-pyridin-4-yl]phenyl]-6-oxo-4-(trifluoromethyl)-1H-pyridine-3-carboxamide], 6.33 nM; as for `C[C@@H]1CN(c2cc(F)c(-c3cncc(C(N)=O)c3)cc2NC(=O)c2c[nH]c(=O)cc2C(F)(F)F)C[C@H](C)N1C` [Example 179, N-[5-(5-carbamoylpyridin-3-yl)-4-fluoro-2-[(3R,5S)-3,4,5-trimethylpiperazin-1-yl]phenyl]-6-oxo-4-(trifluoromethyl)-1H-pyridine-3-carboxamide], 11.5 nM. Still for that read-out and setting: as for `CN(C)[C@@H]1CCN(c2cc(F)c(-c3ccc(O)nc3)cc2NC(=O)c2c[nH]c(=O)cc2C(F)(F)F)C1` [Example 237, N-[4-fluoro-5-(6-hydroxypyridin-3-yl)-2-[(3R)-3-(dimethylamino)pyrrolidin-1-yl]phenyl]-6-oxo-4-(trifluoromethyl)-1H-pyridine-3-carboxamide], the figure is 9.33 nM.

Still in this test, the particulars now being: surface plasmon resonance (SPR); read-out: WDR5 binding affinity (KD).
For the molecule `C[C@@H]1CN(c2cc(F)c(-c3cnc(N4CCOCC4)nc3)cc2NC(=O)c2c[nH]c(=O)cc2C(F)(F)F)C[C@H](C)[N+]1(C)C` [Example 479, N-[4-fluoro-5-(2-morpholin-4-ylpyrimidin-5-yl)-2-[(3R,5S)-3,4,4,5-tetramethylpiperazin-4-ium-1-yl]phenyl]-6-oxo-4-(trifluoromethyl)-1H-pyridine-3-carboxamide], the Kd is 3.54 nM. `CC1CN(c2cc(F)c(-c3cc(C(N)=O)c(F)cc3F)cc2NC(=O)c2ccc(F)cc2C(F)(F)F)CCN1C` (stereo in doubt) [Example 635, 2,4-difluoro-5-[2-fluoro-5-[[4-fluoro-2-(trifluoromethyl)benzoyl]amino]-4-[(3R)-3,4-dimethylpiperazin-1-yl]phenyl]benzamide]: the Kd amounted to 66.9 nM. For `CNC(=O)c1cc(-c2cc(NC(=O)c3c[nH]c(=O)cc3C(F)F)c(N3C[C@@H](C)N(C)[C@@H](C)C3)cc2F)ccc1F` [Example 606, 4-(difluoromethyl)-N-[4-fluoro-5-[4-fluoro-3-(methylcarbamoyl)phenyl]-2-[(3R,5S)-3,4,5-trimethylpiperazin-1-yl]phenyl]-6-oxo-1H-pyridine-3-carboxamide], the Kd came to 1.86 nM. Same read-out and setting: the result for `C[C@@H]1CN(c2cc(F)c(C3=CCCN(c4ncc(C#N)s4)C3)cc2NC(=O)c2c[nH]c(=O)cc2C(F)F)C[C@H](C)N1C` [Example 687, N-[5-[1-(5-cyano-1,3-thiazol-2-yl)-3,6-dihydro-2H-pyridin-5-yl]-4-fluoro-2-[(3R,5S)-3,4,5-trimethylpiperazin-1-yl]phenyl]-4-(difluoromethyl)-6-oxo-1H-pyridine-3-carboxamide] reads 1.84 nM; that for `C[C@@H]1CN(c2cc(F)c(C3=CCCN(c4ncc(CN5CCN(C)CC5)cn4)C3)cc2NC(=O)c2c[nH]c(=O)cc2C(F)(F)F)C[C@H](C)N1C` [Example 416, N-[4-fluoro-5-[1-[5-[(4-methylpiperazin-1-yl)methyl]pyrimidin-2-yl]-3,6-dihydro-2H-pyridin-5-yl]-2-[(3R,5S)-3,4,5-trimethylpiperazin-1-yl]phenyl]-6-oxo-4-(trifluoromethyl)-1H-pyridine-3-carboxamide], 0.108 nM. Still for that read-out and setting: the result for `CC(C)OC(=O)N1CCC=C(c2cc(NC(=O)c3c[nH]c(=O)cc3C(F)F)c(N3C[C@@H](C)N(C)[C@@H](C)C3)cc2F)CC1` [Example 723, propan-2-yl 4-[5-[[4-(difluoromethyl)-6-oxo-1H-pyridine-3-carbonyl]amino]-2-fluoro-4-[(3R,5S)-3,4,5-trimethylpiperazin-1-yl]phenyl]-2,3,6,7-tetrahydroazepine-1-carboxylate] reads 3.12 nM; that for `C[C@@H]1CN(c2cc(F)c(C3=CCN(C(=O)OC4(C)COC4)CC3)cc2NC(=O)c2c[nH]c(=O)cc2C(F)(F)F)C[C@H](C)N1C` [Example 488, (3-methyloxetan-3-yl) 4-[2-fluoro-5-[[6-oxo-4-(trifluoromethyl)-1H-pyridine-3-carbonyl]amino]-4-[(3R,5S)-3,4,5-trimethylpiperazin-1-yl]phenyl]-3,6-dihydro-2H-pyridine-1-carboxylate], 4.87 nM; that for `CNC(=O)c1ccc(-c2cc(NC(=O)c3cn(C)c(=O)cc3C(F)F)c(N3CCN(C)C(C)C3)cc2F)cc1F` (stereo in doubt) [Example 653, 4-(difluoromethyl)-N-[4-fluoro-5-[3-fluoro-4-(methylcarbamoyl)phenyl]-2-[(3R)-3,4-dimethylpiperazin-1-yl]phenyl]-1-methyl-6-oxopyridine-3-carboxamide], 3.43 nM.

For `C[C@@H]1CN(c2cc(F)c(-c3ccsc3)cc2NC(=O)c2c[nH]c(=O)cc2C(F)(F)F)C[C@H](C)N1C` [Example 493, N-[4-fluoro-2-[(3R,5S)-3,4,5-trimethylpiperazin-1-yl]-5-thiophen-3-ylphenyl]-6-oxo-4-(trifluoromethyl)-1H-pyridine-3-carboxamide], the Kd came out at 2.86 nM.

The values above are taken from US11319299B2, “Substituted carboxamides as inhibitors of WDR5 protein-protein binding” (PROPELLON THERAPEUTICS INC., priority 2016, dated 2022).
